# Earlier results as cited in CN106749267A, “新的表皮生长因子受体抑制剂及其应用” (Nanjing Sanhome Pharmaceutical Co Ltd, priority 2015, dated 2017).
# Like-named read-outs stand apart in the source and are kept apart here.
SMILES,blood glucose increase side effect (in vivo),"blood glucose increase side effect (literature report, hyperglycemia from EGFR TKIs)"
C=CC(=O)Nc1cc(Nc2nccc(-c3cn(C)c4ccccc34)n2)c(OC)cc1N(C)CCN(C)C [AZD9291],一定程度的升高,
C=CC(=O)Nc1cccc(Nc2nc(Nc3ccc(N4CCN(C(C)=O)CC4)cc3OC)ncc2C(F)(F)F)c1 [Rociletinib],,一定程度的升高
